According to US12377095B2, “Use of ligustrazine nitrone derivatives in treatment and prevention of diabetic complication diseases” (QINGDAO HAILAN PHARMACEUTICALS CO., LTD., priority 2019, dated 2025):

How the values were obtained:
[1] = system: STZ-induced DKD rats; test: Blood glucose and urine protein in STZ-induced DKD rats; type: in vivo, rat
Procedure: SD rats (200±10 g) were used as model animals, which were fasted for 12 h before injection. STZ was dissolved in citrate buffer at 1% concentration, and rats were fasted and intraperitoneally injected with 55 mg/kg STZ and placed in the cage, the rats being ensured with adequate water intake for 24 h. STZ injections need to be fast and complete within 10 minutes of injection. The normal control group was injected with an equal volume of pH 4.5 citric acid-sodium citrate buffer. The state of the animals (multiple drinking and polyuria) was observed. After 3 weeks of STZ injection, blood was collected from the tail vein, and fasting blood glucose ≥16.7 mmol/L was measured as the standard for diabetic nephropathy in rats.
DKD rats were randomly assigned to 6 groups and given with different drugs. After 6 weeks of administration, the experiment was terminated and the protective effect of the drug on DKD rats was observed.
During the experiment, the blood glucose of the rats was monitored after the completion of the modeling and after the completion of the administration, and urine protein was collected once at 24 hour.

[2] = system: diabetic neuropathy model rats; test: Mechanical pain threshold (von Frey) in diabetic neuropathy model rats; type: in vivo, rat; conditions: TBN 30 mg/kg twice a day
Procedure: Modeling method: STZ was weighed and transferred to a centrifuge tube, wrapped with aluminum foil, kept away from light, and stored at −20° C. STZ sodium citrate solution is prepared when it is in need to use. The rats were fasted without water for 12 hours before injection. After weighing, the rats were injected with 55 mg/kg STZ intraperitoneally (STZ needs to be injected quickly, and the injection was completed within 10 minutes), and then returned to the cage to ensure that the rats had sufficient drinking water for 24 hours. Rats were injected with an equal volume of citrate buffer (pH 4.5). Four weeks after STZ injection, blood was collected from the tail vein, and the rats with blood glucose less than 16.7 mmol/L were eliminated; the taillick threshold temperature was increased, and the mechanical withdrawal threshold (MWT) was decreased, as the standard of a successful DPN model.
The animals were randomly divided into 3 groups (n=7), namely the normal control group, the model group, and the TBN (30 mg/kg) group. The normal group and the model group were injected with an equal volume of normal saline, and TBN was administered twice a day (fixed at 9:00-10:00 am and 3:00-4:00 pm), continuously for 4 weeks.
Experiment for detecting mechanical pain threshold: In a quiet environment, the rats were individually placed in a porous steel wire cage. […]

[3] = system: STZ-induced DKD rats; test: HE staining of kidney tissue, STZ-induced SD rat DKD model; type: in vivo
Procedure: Before the injection, the rats were fasted for 12 hours without water. After weighing, the rats were injected with 55 mg/kg STZ intraperitoneally (STZ needs to be injected quickly, and the injection was completed within 10 minutes), and then returned to the cage to ensure that the rats had sufficient drinking water for 24 hours. Rats were injected with an equal volume of citrate buffer (pH 4.5). After STZ injection for 3 weeks, blood was collected from the tail vein, and blood glucose ≥16.7 mmol/L was used as the criteria for the standard of the rats.
The route of administration is intragastric administration. TBN was administered twice a day (fixed at 9:00-10:00 am and 3:00-4:00 pm), and Losartan was administered once a day (fixed at 9:00-10:00 am) continuously for 6 weeks.
At the end of the experiment, kidney tissues were quickly separated, fixed with 4% paraformaldehyde and embedded in paraffin, serially sliced, 5 μm each, dried at 37° C. for 1 h, and then stained with hematoxylin and eosin (HE). The process is briefly as follows: paraffin sections were taken out of the 65° C. oven and immediately put in xylene to dewax and rehydrated with gradient alcohol, stained with hematoxylin staining solution for 10 minutes, and microscopically controlled alcohol differentiation with 1% hydrochloric acid was performed until the chromatin of the nucleus and the nucleus becomes clear; 1% ammonia water-ethanol solution is blue; 0.5% eosin Y-ethanol solution is stained for 3 min, and finally dehydrated routinely, mounted, and the tissue morphology changes are observed under a light microscope. […] The glomerular volume of rats in the DKD group of the Vehicle group increased, the mesangial area was diffusely widened, the mesangial cells were proliferated, the capillary loops were expanded, the mesangial matrix increased, and the glomerular capillary basement membrane was irregularly thickened. Renal pathological changes such as vacuole deformation, shedding of renal tubular epithelial cells and infiltration of a large number of inflammatory cells (FIG. 9A).

[4] = system: db/db mice; test: Electron microscopy of kidney tissue in db/db mice; type: in vivo, mouse
From the text: db/db mice are congenital obese type 2 DKD mice with spontaneous mutations in the leptin receptor (Leptin receptor, Lepr) due to a point mutation in the leptin receptor gene GT located on chromosome 4. The course of polyphagia, polyuria, diabetes and hyperglycemia is similar to that of humans, and it is currently the most widely used type 2 spontaneous animal model of DKD. The db/db mice have a series of complications with the aggravation of diabetes. The main pathological changes of renal tissue are the expansion of the glomerular mesangial interstitium, the thickening of the glomerular basement membrane, and the excessive accumulation of extracellular matrix. However, the glomerular mesangium of db/db mice changes relatively slowly, and the glomerular mesangium will not be dissolved or nodular glomerulosclerosis, and there is no progressive renal insufficiency.
Six-week-old db/db mice were purchased, and start the administration after adaptive feeding for 1 week (i.e., 7-week-old). TBN is administered twice a day (fixed by starting from 9:00-10:00 am and 3:00-4:00 pm, with an interval of 6 hours), and the positive control drug Losartan was administered once a day (fixed at 9:00-10:00 am) for 6 weeks.
After the mice were executed, the renal cortex was quickly taken with sharp blade (performed on ice); fixed with 2.5% glutaraldehyde (pH 7.4) at 4° C. for 6 h; then fixed for 2 h in a stationary liquid having 1:1 of 0.2 mmol/L PBS and 2% osmic acid, and dehydrated with gradient acetone at 4° C., 10 min for each of 50%, 70%, 90% acetone, then dehydrated with 100% acetone at room temperature twice, each time 15 min; in 1:1 acetone and Epon812 epoxy resin embedded mixed liquid, soaked at room temperature for 30 min; then dipped through the pure furnishings overnight, the embedding agent was made enveloping into tissue blocks completely to replace the dehydrating agent; the samples were embedded in the embedder for ultra-thin slicing, placed at 35° C. for 12 h; placed at 45° C. for 12 h; placed at 60° C. for 48 h; placed in a 37° C. oven for 36 h, in a 60° C. oven for 36 h; 1.5 μm semi-slice was prepared with an ultra-thin slicer; positioning under optical microscope, a trapeter having a top area of about 1 mm^2 was shaped to prepare 60-70 nm thick ultra-thin slices; dyed in dark with acetate hydroxide liquid for 10 min, and dyed in lead-stained citrate for 10 min.

SMILES: Cc1nc(C)c(/C=[N+](\[O-])C(C)(C)C)nc1C [TBN]
- urinary protein content in urine ([1]; 24 hour urine, DKD rats): significantly reduced
- blood glucose ([1]; after 6 weeks of treatment): significantly decreased
- mechanical pain threshold vs model group ([2]; 2 weeks after administration (6 weeks after STZ)): no statistically significant difference
- mechanical pain threshold vs model group ([2]; 4 weeks after administration (8 weeks after STZ), P<0.05): increased
- renal pathological changes (HE) ([3]; 60 mg/kg i.g. twice/day, 6 weeks): improved the most
- renal pathological changes (HE) ([3]; each dose group of TBN (10, 30, 60 mg/kg i.g. twice/day, 6 weeks)): improved
- podocyte fusion ([4]; 10 mg/kg): slight podocyte fusion
- proliferation of the glomerular membrane ([4]; 10 mg/kg): no significant proliferation
- thickness of the glomerular base film ([4]; 10 mg/kg, 6 weeks (TBN P<0.05; Losartan P<0.01)): decrease
- podocyte fusion ([4]; 30 mg/kg): podocyte fusion in small area
- proliferation of the glomerular measuring membrane ([4]; 30 mg/kg): no significant proliferation
- thickness of the glomerular base film ([4]; 30 mg/kg, P<0.01 vs db/db): significantly reduced
- podocyte fusion ([4]; 60 mg/kg): no obvious segmental fusion
- proliferation of glomerular membranes ([4]; 60 mg/kg): no significant proliferation
- thickness of the glomerular base film ([4]; 60 mg/kg, P<0.01 vs db/db): significantly reduced
